Data taken from PubChem BioAssay AID1963430 (Molecular Pharmacology Branch, DTP, NCI, 2024).

System: 521955-158-R2-J5-PDC complex spheroid growth, % test/control
Experiment: Anticancer human tumor 521955-158-R2-J5-PDC patient-derived pancreatic carcinoma cell line growth inhibition [Asc]
Settings: for IC50: curve of first compound; for viability, T/C: stronger effect = lower value; active = viability on the fitted dose curve at most 10% of control; inactive = the rest
Method in brief: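 Tumor cells were grown as multicellular spheroids with stromal HUVEC and mesenchymal stem cells and treated singly or in combination. Concentrations fell in half-log steps from the clinical Cmax, or from 10 microM where none was known.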

[1] = second compound 0.1 µM, first compound 0.0316 µM
[2] = second compound 0.1 µM, first compound 0.1 µM
[3] = second compound 0.1 µM, first compound 0.316 µM
[4] = second compound 0.1 µM, first compound 1 µM
[5] = second compound 0.316 µM, first compound 0.0316 µM
[6] = second compound 0.316 µM, first compound 0.1 µM
[7] = second compound 0.316 µM, first compound 0.316 µM
[8] = second compound 0.316 µM, first compound 1 µM
[9] = second compound 1 µM, first compound 0.0316 µM
[10] = second compound 1 µM, first compound 0.1 µM
[11] = second compound 1 µM, first compound 0.316 µM
[12] = second compound 1 µM, first compound 1 µM
[13] = second compound 3.16 µM, first compound 0.0316 µM
[14] = second compound 3.16 µM, first compound 0.1 µM
[15] = second compound 3.16 µM, first compound 0.316 µM
[16] = second compound 3.16 µM, first compound 1 µM
[17] = second compound 10 µM, first compound 0.0316 µM
[18] = second compound 10 µM, first compound 0.1 µM
[19] = second compound 10 µM, first compound 0.316 µM
[20] = second compound 10 µM, first compound 1 µM
[21] = second compound 0.1 µM, first compound 0.00316 µM
[22] = second compound 0.1 µM, first compound 0.01 µM
[23] = second compound 0.316 µM, first compound 0.00316 µM
[24] = second compound 0.316 µM, first compound 0.01 µM
[25] = second compound 1 µM, first compound 0.00316 µM
[26] = second compound 1 µM, first compound 0.01 µM
[27] = second compound 3.16 µM, first compound 0.00316 µM
[28] = second compound 3.16 µM, first compound 0.01 µM
[29] = second compound 10 µM, first compound 0.00316 µM
[30] = second compound 10 µM, first compound 0.01 µM
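Also: spheroids exposed to agents for 7 days before readout.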
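For viability, T/C in this document: 100% = DMSO vehicle control viability.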

C=CC(=O)N1CCN(c2nc(=O)n(-c3c(C)ccnc3C(C)C)c3nc(-c4c(O)cccc4F)c(F)cc23)C(C)C1 (stereo not given) + Cc1c(S(C)(=O)=O)c(-c2cc(F)cc(N3CCN(c4ccc(NS(=O)(=O)c5ccc(NC(CCN6CCC(C(=O)OCCCP(=O)(O)O)CC6)CSc6ccccc6)c(S(=O)(=O)C(F)(F)F)c5)cc4)CC3)c2)c(-c2ccc(Cl)cc2)n1C(C)C
> 10000 nM: IC50 (second compound 0.1 µM) | IC50 (second compound 0.316 µM) | IC50 (second compound 1 µM) | IC50 (second compound 3.16 µM) | IC50 (second compound 10 µM)
inactive: viability, T/C [1] 77.7% | viability, T/C [2] 87.5% | viability, T/C [3] 64.9% | viability, T/C [4] 94.5% | viability, T/C (second compound 0.1 µM, first compound 3.16 µM) 107% | viability, T/C (second compound 0.1 µM, first compound 10 µM) 77.5% | viability, T/C [5] 80.6% | viability, T/C [6] 72.2% | viability, T/C [7] 84.8% | viability, T/C [8] 112% | viability, T/C (second compound 0.316 µM, first compound 3.16 µM) 111% | viability, T/C (second compound 0.316 µM, first compound 10 µM) 83.7% | viability, T/C [9] 69.5% | viability, T/C [10] 72.3% | viability, T/C [11] 85.8% | viability, T/C [12] 95.7% | viability, T/C (second compound 1 µM, first compound 3.16 µM) 71.8% | viability, T/C (second compound 1 µM, first compound 10 µM) 81.7% | viability, T/C [13] 73.7% | viability, T/C [14] 97.8% | viability, T/C [15] 83.5% | viability, T/C [16] 86.5% | viability, T/C (second compound 3.16 µM, first compound 3.16 µM) 103% | viability, T/C (second compound 3.16 µM, first compound 10 µM) 80.3% | viability, T/C [17] 151% | viability, T/C [18] 176% | viability, T/C [19] 167% | viability, T/C [20] 112% | viability, T/C (second compound 10 µM, first compound 3.16 µM) 123% | viability, T/C (second compound 10 µM, first compound 10 µM) 98.4%

COc1c(OCCCN2CCOCC2)ccc2c3n(c(=NC(=O)c4cnc(N)nc4)nc12)CCN3 + Cc1c(S(C)(=O)=O)c(-c2cc(F)cc(N3CCN(c4ccc(NS(=O)(=O)c5ccc(NC(CCN6CCC(C(=O)OCCCP(=O)(O)O)CC6)CSc6ccccc6)c(S(=O)(=O)C(F)(F)F)c5)cc4)CC3)c2)c(-c2ccc(Cl)cc2)n1C(C)C
173 nM: IC50 (second compound 10 µM)
8.11 nM: IC50 (second compound 0.1 µM)
active: viability, T/C [4] 8.91% | viability, T/C [12] 3.88% | viability, T/C [16] 2.79% | viability, T/C [19] 11.1% | viability, T/C [20] 7%
9.46 nM: IC50 (second compound 0.316 µM)
inactive: viability, T/C [21] 58.2% | viability, T/C [22] 52.3% | viability, T/C [1] 30.2% | viability, T/C [2] 31.4% | viability, T/C [3] 18% | viability, T/C [23] 65.2% | viability, T/C [24] 53.1% | viability, T/C [5] 27.2% | viability, T/C [6] 31.2% | viability, T/C [7] 13.1% | viability, T/C [8] 10.8% | viability, T/C [25] 39.3% | viability, T/C [26] 39.6% | viability, T/C [9] 38.9% | viability, T/C [10] 33.2% | viability, T/C [11] 11% | viability, T/C [27] 45.4% | viability, T/C [28] 50.5% | viability, T/C [13] 39.9% | viability, T/C [14] 32% | viability, T/C [15] 14% | viability, T/C [29] 189% | viability, T/C [30] 133% | viability, T/C [17] 166% | viability, T/C [18] 87.5%
< 3.16 nM: IC50 (second compound 1 µM) | IC50 (second compound 3.16 µM)

NC(=O)C(=Cn1cnc(-c2cc(C(F)(F)F)cc(C(F)(F)F)c2)n1)c1cncnc1 + Cc1c(S(C)(=O)=O)c(-c2cc(F)cc(N3CCN(c4ccc(NS(=O)(=O)c5ccc(NC(CCN6CCC(C(=O)OCCCP(=O)(O)O)CC6)CSc6ccccc6)c(S(=O)(=O)C(F)(F)F)c5)cc4)CC3)c2)c(-c2ccc(Cl)cc2)n1C(C)C
1.94 nM: IC50 (second compound 0.1 µM)
25.3 nM: IC50 (second compound 10 µM)
inactive: viability, T/C (second compound 0.1 µM, first compound 0.000949 µM) 77.2% | viability, T/C (second compound 0.1 µM, first compound 0.003 µM) 33.3% | viability, T/C (second compound 0.1 µM, first compound 0.00949 µM) 28.4% | viability, T/C (second compound 0.1 µM, first compound 0.03 µM) 20.9% | viability, T/C (second compound 0.1 µM, first compound 0.0949 µM) 22.3% | viability, T/C (second compound 0.1 µM, first compound 0.3 µM) 28% | viability, T/C (second compound 0.316 µM, first compound 0.000949 µM) 44.5% | viability, T/C (second compound 0.316 µM, first compound 0.003 µM) 48% | viability, T/C (second compound 0.316 µM, first compound 0.00949 µM) 30% | viability, T/C (second compound 0.316 µM, first compound 0.03 µM) 23.2% | viability, T/C (second compound 0.316 µM, first compound 0.0949 µM) 17.2% | viability, T/C (second compound 0.316 µM, first compound 0.3 µM) 24.1% | viability, T/C (second compound 1 µM, first compound 0.000949 µM) 54.3% | viability, T/C (second compound 1 µM, first compound 0.003 µM) 40.5% | viability, T/C (second compound 1 µM, first compound 0.00949 µM) 21.4% | viability, T/C (second compound 1 µM, first compound 0.03 µM) 17.7% | viability, T/C (second compound 1 µM, first compound 0.0949 µM) 14.4% | viability, T/C (second compound 1 µM, first compound 0.3 µM) 14.8% | viability, T/C (second compound 3.16 µM, first compound 0.000949 µM) 53.2% | viability, T/C (second compound 3.16 µM, first compound 0.003 µM) 40% | viability, T/C (second compound 3.16 µM, first compound 0.00949 µM) 22.6% | viability, T/C (second compound 3.16 µM, first compound 0.03 µM) 13.5% | viability, T/C (second compound 3.16 µM, first compound 0.0949 µM) 9.75% | viability, T/C (second compound 3.16 µM, first compound 0.3 µM) 13.1% | viability, T/C (second compound 10 µM, first compound 0.000949 µM) 143% | viability, T/C (second compound 10 µM, first compound 0.003 µM) 106% | viability, T/C (second compound 10 µM, first compound 0.00949 µM) 91.4% | viability, T/C (second compound 10 µM, first compound 0.03 µM) 40.3% | viability, T/C (second compound 10 µM, first compound 0.0949 µM) 17.1%
1.25 nM: IC50 (second compound 3.16 µM)
1.36 nM: IC50 (second compound 1 µM)
< 0.949 nM: IC50 (second compound 0.316 µM)
active: viability, T/C (second compound 10 µM, first compound 0.3 µM) 10.8%

NC1CCC(NC2CC2c2ccccc2)CC1 (stereo not given) + Cc1c(S(C)(=O)=O)c(-c2cc(F)cc(N3CCN(c4ccc(NS(=O)(=O)c5ccc(NC(CCN6CCC(C(=O)OCCCP(=O)(O)O)CC6)CSc6ccccc6)c(S(=O)(=O)C(F)(F)F)c5)cc4)CC3)c2)c(-c2ccc(Cl)cc2)n1C(C)C
22.1 nM: IC50 (second compound 10 µM)
< 0.316 nM: IC50 (second compound 0.316 µM) | IC50 (second compound 1 µM) | IC50 (second compound 3.16 µM)
2.46 nM: IC50 (second compound 0.1 µM)
inactive: viability, T/C (second compound 0.1 µM, first compound 0.000316 µM) 58% | viability, T/C (second compound 0.1 µM, first compound 0.001 µM) 46.2% | viability, T/C [21] 56.8% | viability, T/C [22] 48.5% | viability, T/C [1] 37.8% | viability, T/C [2] 48.4% | viability, T/C (second compound 0.316 µM, first compound 0.000316 µM) 40.8% | viability, T/C (second compound 0.316 µM, first compound 0.001 µM) 36.3% | viability, T/C [23] 47.8% | viability, T/C [24] 38.4% | viability, T/C [5] 46% | viability, T/C [6] 49% | viability, T/C (second compound 1 µM, first compound 0.000316 µM) 27.9% | viability, T/C (second compound 1 µM, first compound 0.001 µM) 33.9% | viability, T/C [25] 34.6% | viability, T/C [26] 34.8% | viability, T/C [9] 39.7% | viability, T/C [10] 34.6% | viability, T/C (second compound 3.16 µM, first compound 0.000316 µM) 41.6% | viability, T/C (second compound 3.16 µM, first compound 0.001 µM) 32.8% | viability, T/C [27] 25.4% | viability, T/C [28] 26.5% | viability, T/C [13] 30.7% | viability, T/C [14] 33.9% | viability, T/C (second compound 10 µM, first compound 0.000316 µM) 58% | viability, T/C (second compound 10 µM, first compound 0.001 µM) 48.3% | viability, T/C [29] 31.8% | viability, T/C [30] 71.6% | viability, T/C [17] 44.7% | viability, T/C [18] 39.1%
